Read-outs that look alike come from different tables or passages of the source.
Biological target: T1, CIB1 and αIIb interaction (CIB1-GST : F-αIIb peptide) (Homo sapiens, UniProt Q99828)
T1 construct: made in house; host or cells: BL-21 plus RIL cells (E. coli)
T1 sequence (Q99828 1-191): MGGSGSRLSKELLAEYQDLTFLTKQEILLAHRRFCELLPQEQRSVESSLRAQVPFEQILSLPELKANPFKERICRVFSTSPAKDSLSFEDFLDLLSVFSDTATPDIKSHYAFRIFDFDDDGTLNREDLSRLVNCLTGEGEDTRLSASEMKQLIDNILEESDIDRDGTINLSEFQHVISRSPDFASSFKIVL
Experiment: FP assay, 1536-well qHTS format (primary and confirmatory screen)
Format: binding
Settings: for Efficacy (%): negative = inhibition; for Curve Class: negative sign = inhibitory curve; for IC50: read-out: IC50

[1] = qHTS primary screen of LOPAC/NPACT libraries
[2] = qHTS primary screen hits, Table S2
[3] = qHTS primary screen hits, Table S2, several classes where COUNT > 1

Compound | Efficacy (%) [1] | Curve Class [1] | IC50 [1] | Efficacy (%) [2] | Curve Class [3] | IC50 [2] | other results
CC1CC2(O)OC(=O)C3=C2C(CCC3)[C@@]12C[C@@H](c1ccoc1)OC2=O (stereo partly drawn) [NCGC00385045-01] | -23% | -2.4 | 31.6 µM |  |  |  | 
CC(C)N(CCC(=O)c1ccc2ccccc2c1)Cc1ccccc1.Cl [NCGC00016107-09] | -65% | -1.2 | 28.2 µM |  |  |  | 
Cc1cc2c(cc1C1(c3ccc(C(=O)O)cc3)CC1)C(C)(C)CCC2(C)C [NCGC00241454-01] |  |  |  | -27% | -2.4 | 79.4 µM | 
C=C1C(=O)O[C@@H]2C3=C(C)CCC[C@]3(C)CC[C@@]12O [NCGC00385722-01] | -30% | -2.4 | 50.1 µM |  |  |  | 
Cc1ccc(C)c(SC2=NS(=O)(=O)c3cc(C(=O)Nc4ccc5ncccc5c4)ccc32)c1 [NCGC00238689-01] |  |  |  | -27% |  | 44.7 µM | Curve Class [2]: -2.4
N#CCc1cc(-c2ccc(F)c(F)c2)nn1-c1nc(C(=O)O)cs1.O=C(O)C(F)(F)F [NCGC00356771-02] |  |  |  | -16% |  | 50.1 µM | Curve Class [2]: -2.4
O=C(Nc1cccc(C(=O)Nc2ccc(S(=O)(=O)O)c3cc(S(=O)(=O)O)cc(S(=O)(=O)O)c23)c1)Nc1cccc(C(=O)Nc2ccc(S(=O)(=O)O)c3cc(S(=O)(=O)O)cc(S(=O)(=O)O)c23)c1 [NCGC00025069-04] | -37% | -1.4 | 0.316 µM |  |  |  | 
O=C(O)c1cc(/N=N/c2ccc(S(=O)(=O)Nc3ccccn3)cc2)ccc1O [NCGC00090903-11] |  |  |  |  |  |  | Efficacy (%) (qHTS FP screen hits, Table S2): -43%; Curve Class (qHTS FP screen hits, Table S2, one class per curve where COUNT > 1): -2.2; IC50 (qHTS FP screen hits, Table S2): 25.1 µM
CCCCCCCCCCCCCCCC[n+]1ccccc1.[Br-] [NCGC00091023-06] |  |  |  | -31% | -2.4 | 89.1 µM | 
C=C1C2(C)CC3C(C)(O)C4=CC(=O)OC(C)(C)C4=CCC3(C)C13C(=O)OC(C)C3(O)C2=O (stereo not drawn) [NCGC00380442-01] | -28% | -2.4 | 35.5 µM |  |  |  | 
CO[C@@]1(NC(=O)CSCC#N)C(=O)N2C(C(=O)[O-])=C(CSc3nnnn3C)CS[C@@H]21.[Na+] [NCGC00023016-07] |  |  |  | -29% | -2.4 | 50.1 µM | 
O=C(Nc1nc(-c2ccccc2)cs1)c1ccncc1NS(=O)(=O)c1ccc(F)cc1Cl.O=C(O)C(F)(F)F [NCGC00345105-01] |  |  |  | -42% | -2.2 | 79.4 µM | 
Cc1ccccc1C(=O)N1CCc2cc(-c3nc(NC(=O)Cc4cccc(OCCOCCOCCN)c4)sc3C)ccc21.O=C(O)C(F)(F)F [NCGC00351617-01] |  |  |  | -37% | -2.4 | 50.1 µM | 
CCCC(=O)OC[C@@H](OC(=O)CCC)[C@@H](OC(=O)CCC)[C@H](Cn1c2nc(=O)[nH]c(=O)c-2nc2cc(C)c(C)cc21)OC(=O)CCC [NCGC00181300-01] |  |  |  | -140% | -1.1 | 2.8 µM | 
Cc1ccc(OCCn2c3c(c4ccccc42)CN(C(=O)C2CCCCC2)CC3)cc1.O=C(O)C(F)(F)F [NCGC00238717-01] |  |  |  | -46% | -2.4 | 56.2 µM | 
O=C(O)C(F)(F)F.O=C1c2ccccc2NC(c2ccc(-c3ccc(C(F)(F)F)cc3)o2)N1O (stereo not drawn) [NCGC00183389-01] |  |  |  | -24% |  | 56.2 µM | Curve Class [2]: -2.4

From article PMC11249646, “Small-Molecule Disruptors of the Interaction between Calcium- and Integrin-Binding Protein 1 and Integrin αIIbβ3 as Novel Antiplatelet Agents” (ACS Pharmacology & Translational Science, 2024)
